From patent publication US7494996B2 (priority 2000, dated 2009) come the findings set out here.

One experiment concerns Pyricularia oryzae. The experiment is described as follows: whole plant or invertebrate. The class given is in vivo. Particulars: 100 is total disease control, 0 is no disease control; for Rice Blast (RB) protectant fungicide data, percent control: 300 g/ha, greenhouse; for pest or weed control at 300 g/ha: Pyricularia oryzae, topical, 144 h, read-out: Rice Blast (RB) protectant fungicide data, percent control, protectant, 300 g/ha, greenhouse.

Another experiment has as its system Sphaerotheca fuliginea. Kind of experiment: Cucumber Powdery Mildew (CPM) protectant test in the greenhouse. The format is in vivo. The note with it: 100 is total disease control, 0 is no disease control; for Cucumber Powdery Mildew (CPM) protectant fungicide data, percent control: 300 g/ha; for pest or weed control at 300 g/ha: Podosphaera fuliginea, topical, 168 h, read-out: Cucumber Powdery Mildew (CPM) protectant fungicide data, percent control. Here is the method:
Plants used in the fungicide testing program were grown in 2-¼-inch (5.7-cm). square pots containing RediEarth propagation substrate. The plants were raised under greenhouse conditions. The rice plants were 12-days-old and cucumbers were 13-days-old at the time of spraying with chemical treatments.
The sample of the experimental chemical was weighed and dissolved in an acetone-methanol-water solution (A/M/W at 1:1:2 ratio by volume).
After sprayer calibration, the test solutions were poured into the fungicide sprayer. The fungicide sprayer contains three spray nozzles, located approximately 10 cm above and to the sides of the plants. The spray produced by the nozzles results in uniform coverage of both the upper and lower parts of the plant leaves. After spraying, the treated plants were placed in a drying chamber for 4 hours, prior to sorting.
Cucumber Powdery Mildew (CPM), caused by the fungus Sphaerotheca fuliginea, was maintained on large cucumber plants. For inoculum preparation, five to eight leaves depending on size, completely covered with powdery mildew spores, were collected. The leaves were placed in a glass jar and covered with 500 ml of water, containing 5 drops of Tween-80. The material was filtered through two layers of cheesecloth to remove leaf fragments. The spore count was adjusted to 2×10^5 spores per ml.
Cucumber plants, cv. “Bush Champion,” were used for this test. The plants were thinned to one per pot after the cotyledons were fully developed. Two days before the test, the small leaves and meristem region were removed, leaving only the cotyledons and one large true leaf.
The protectant tests required that the cucumber plants be inoculated 1 day after spraying with the chemical treatment. The plants were inoculated with a hand-held spray bottle with the suspension of fungal spores. The leaves were lightly misted on the upper surface from two different spray directions. Disease development occurred in the greenhouse.
After seven days, the plants were evaluated for percent of disease control. The results are reported as percent control; 100 is total disease control, 0 is no disease control.

Take `O=c1cnc(-c2ccc(F)c(Br)c2)nn1CC(F)(F)F` [Compound 290]: the “Rice Blast (RB) protectant fungicide data, percent control” value (shortened to “Rice Blast … percent control”) with Pyricularia oryzae is listed as 100 percent control. For the same compound, the “Cucumber Powdery Mildew (CPM) protectant fungicide data, percent control” value (“Cucumber Powdery Mildew … percent control” for short) in the experiment on Sphaerotheca fuliginea is recorded as 50 percent control.
As for `CCCN1N=C(c2ccc(F)cc2)NCC1=O` [Compound 148], the “Rice Blast … percent control” value in the experiment on Pyricularia oryzae is 80 percent control. In the experiment with Sphaerotheca fuliginea, the “Cucumber Powdery Mildew … percent control” value came out at 80 percent control.
`CCCCN1N=C(c2ccc(Cl)c(Cl)c2)N(C(=O)C(=O)OC)CC1=O` [Compound 85]: the “Rice Blast … percent control” value with Pyricularia oryzae was determined as 100 percent control. Further, in the experiment with Sphaerotheca fuliginea, the “Cucumber Powdery Mildew … percent control” value is reported as 50 percent control.
The corresponding values for `CCCCN1N=C(c2cc(Br)c(OC)c(Br)c2)NCC1=O` [Compound 120] are 80 percent control and 0 percent control.
The corresponding values for `C=CCSC(=O)N1CC(=O)N(CCCC)N=C1c1ccc(Cl)c(Cl)c1` [Compound 191] are 95 percent control and 50 percent control.
The matching figures for `O=C1CNC(c2ccc(Cl)c(Cl)c2)=NN1CC(F)(F)F` [Compound 99]: 100 percent control and 80 percent control.
As for `O=c1cnc(-c2ccccc2F)nn1CC(F)(F)F` [Compound 263], the “Rice Blast … percent control” value with Pyricularia oryzae is listed as 80 percent control. The “Cucumber Powdery Mildew … percent control” value in the experiment on Sphaerotheca fuliginea was 85 percent control.
The matching figures for `CCCCN1N=C(c2ccc(Cl)c(Cl)c2)N(CC2CCC2)CC1=O` [Compound 201]: 85 percent control and 0 percent control.
As to `CCCCN1Nc2c3c(Cl)c(Cl)ccc3cn2CC1=O` [Compound 23, 9,10-Dichloro-2-butyl-1,2,4-triazino[3,4-a]isoindol-3(4H)-one], the pest or weed control at 300 g/ha in the experiment with Pyricularia oryzae was 0%; in the experiment on Sphaerotheca fuliginea, 50%.
For `CCCCN1N=C(c2sc(C)nc2C(F)(F)F)NCC1=O` [Compound 68], the “Rice Blast … percent control” value with Pyricularia oryzae was determined as 0 percent control. For the same compound, the “Cucumber Powdery Mildew … percent control” value in the experiment on Sphaerotheca fuliginea is given as 50 percent control.
Take `O=C1CNC(c2cccc([N+](=O)[O-])c2)=NN1CC(F)(F)F` [Compound 167]: the “Rice Blast … percent control” value with Pyricularia oryzae was 85 percent control. Further, in the experiment on Sphaerotheca fuliginea, the “Cucumber Powdery Mildew … percent control” value came out at 0 percent control.
For `CCCCN1N=C(C)NC(c2ccc(F)cc2)C1=O` (stereo not drawn) [Compound 93], the “Rice Blast … percent control” value in the experiment with Pyricularia oryzae came out at 0 percent control. The “Cucumber Powdery Mildew … percent control” value with Sphaerotheca fuliginea was 75 percent control.
The corresponding values for `C#CCN1CC(=O)N(CC#C)N=C1c1ccc(Cl)c(Cl)c1` [Compound 216] are 98 percent control and 80 percent control.
Consider `CCCCN1C=C2c3ccccc3OC(=O)N2CC1=O` [Compound 25, 3-n-Butyl-3H-9-oxa-3,10a-diaza-phenanthrene-2,10-dione], for which the pest or weed control at 300 g/ha is 75% in the experiment on Pyricularia oryzae and 0% in the experiment on Sphaerotheca fuliginea.
For `CCCCn1nc(-c2cc(C(F)(F)F)cc(C(F)(F)F)c2)ncc1=O` [Compound 288], the “Rice Blast … percent control” value with Pyricularia oryzae was 0 percent control. The “Cucumber Powdery Mildew … percent control” value in the experiment on Sphaerotheca fuliginea worked out at 75 percent control.
As to `C=COC(=O)N1CC(=O)N(CC(F)(F)F)N=C1c1cc(Cl)cc(Cl)c1` [Compound 113], the “Rice Blast … percent control” value in the experiment with Pyricularia oryzae is reported as 99 percent control. In addition, the “Cucumber Powdery Mildew … percent control” value in the experiment with Sphaerotheca fuliginea is recorded as 75 percent control.
`O=C1C(O)NC(c2ccccn2)=NN1CC(F)(F)F` (stereo not drawn) [Compound 53]: the “Rice Blast … percent control” value with Pyricularia oryzae was found to be 75 percent control. Besides, the “Cucumber Powdery Mildew … percent control” value in the experiment with Sphaerotheca fuliginea was found to be 0 percent control.
The corresponding values for `O=C1CN(CC2CC2)C(c2cccc(Br)c2)=NN1CC1CC1` [Compound 224] are 75 percent control and 50 percent control.
The corresponding values for `CSc1ccc(C2=NN(CC(F)(F)F)C(=O)CN2)cc1` [Compound 147] are 98 percent control and 0 percent control.
On to `O=C1CNC(c2ccc(F)c(Cl)c2)=NN1CC(F)(F)F` [Compound 1, 1-(2,2,2-trifluoroethyl)-3-(3-chloro-4-fluorophenyl)-4,5-dihydro-1,2,4-triazin-6-one], for which the pest or weed control at 300 g/ha turned out to be 99% with Pyricularia oryzae and 80% in the experiment with Sphaerotheca fuliginea.
As to `Cc1ccc(C2=NN(CC(F)(F)F)C(=O)CN2)cc1Cl` [Compound 293], the “Rice Blast … percent control” value in the experiment with Pyricularia oryzae is 100 percent control. Also, the “Cucumber Powdery Mildew … percent control” value in the experiment with Sphaerotheca fuliginea is given as 50 percent control.
Turning to `CCCCN1N=C(c2ccc(Cl)c(Cl)c2)N(C(=O)C2CC2)CC1=O` [Compound 181], the “Rice Blast … percent control” value in the experiment with Pyricularia oryzae is 50 percent control. For the same compound, in the experiment with Sphaerotheca fuliginea, the “Cucumber Powdery Mildew … percent control” value was 0 percent control.
For the compound `CCOc1ccc(C2=NN(c3ccc(Cl)cc3)C(=O)CN2)cc1` [Compound 161], the “Rice Blast … percent control” value with Pyricularia oryzae is 80 percent control. For the same compound, the “Cucumber Powdery Mildew … percent control” value with Sphaerotheca fuliginea is listed as 0 percent control.
Regarding `CN1N=C(c2ccccc2)NCC1=O` [Compound 31], the “Rice Blast … percent control” value in the experiment with Pyricularia oryzae was found to be 50 percent control. Also, the “Cucumber Powdery Mildew … percent control” value in the experiment with Sphaerotheca fuliginea is given as 0 percent control.
Regarding `O=C1CNC(c2ccc3ccccc3c2)=NN1CC(F)(F)F` [Compound 143], the “Rice Blast … percent control” value with Pyricularia oryzae amounted to 98 percent control. For the same compound, in the experiment on Sphaerotheca fuliginea, the “Cucumber Powdery Mildew … percent control” value is given as 50 percent control.
The matching figures for `CCCOc1ccc(C2=NN(CC(F)(F)F)C(=O)CN2)cc1` [Compound 145]: 90 percent control and 0 percent control.
Take `CCCCN1N=C(c2cc(C)cc(C)c2)NCC1=O` [Compound 295]: the “Rice Blast … percent control” value in the experiment on Pyricularia oryzae is reported as 99 percent control. In addition, the “Cucumber Powdery Mildew … percent control” value with Sphaerotheca fuliginea was found to be 50 percent control.
`CCCCN1N=C(c2ccc(Cl)c(Cl)c2)N(Cc2ccc(OC)cc2)CC1=O` [Compound 199]: in the experiment on Pyricularia oryzae, the “Rice Blast … percent control” value is reported as 90 percent control. Further, in the experiment with Sphaerotheca fuliginea, the “Cucumber Powdery Mildew … percent control” value is recorded as 0 percent control.
The matching figures for `CCCCN1N=C(c2ccc(Cl)c(Cl)c2)N(C=CS(=O)(=O)c2ccccc2)CC1=O` [Compound 13, 1-n-butyl-3-(3.4-dichlorophenyl)-4-(2-phenylsulfonylethene)-4,5-dihydro-1,2,4-triazin-6-one]: 95 percent control and 0 percent control.
Consider `CCCCn1nc(-c2ccc(OC)cc2)ncc1=O` [Compound 244], for which the “Rice Blast … percent control” value in the experiment with Pyricularia oryzae is given as 100 percent control. In addition, the “Cucumber Powdery Mildew … percent control” value in the experiment with Sphaerotheca fuliginea stood at 50 percent control.
For `O=c1cnc(-c2ccccc2)n[nH]1` [Compound 243], the “Rice Blast … percent control” value with Pyricularia oryzae is listed as 75 percent control. In addition, the “Cucumber Powdery Mildew … percent control” value in the experiment on Sphaerotheca fuliginea is listed as 0 percent control.
`CCCCCN1N=C(c2cc(Cl)c(C)c(Cl)c2)NCC1=O` [Compound 49]: in the experiment on Pyricularia oryzae, the “Rice Blast … percent control” value amounted to 95 percent control. In addition, the “Cucumber Powdery Mildew … percent control” value in the experiment with Sphaerotheca fuliginea was 75 percent control.
The corresponding values for `CCCCN1N=C(c2c(Cl)cncc2Cl)NCC1=O` [Compound 121] are 80 percent control and 0 percent control.
The matching figures for `Cn1nc(-c2ccc(Oc3ccccc3)cc2)ncc1=O` [Compound 282]: 75 percent control and 75 percent control.
On to `O=c1cnc(-c2ccc(Cl)cc2)nn1-c1ccccn1` [Compound 261], for which the “Rice Blast … percent control” value in the experiment with Pyricularia oryzae stood at 50 percent control. For the same compound, in the experiment with Sphaerotheca fuliginea, the “Cucumber Powdery Mildew … percent control” value stood at 0 percent control.
`Cc1cccc(N2N=C(c3ccc(OCC(F)(F)F)nc3)NCC2=O)c1` [Compound 188]: in the experiment with Pyricularia oryzae, the “Rice Blast … percent control” value worked out at 80 percent control. In addition, the “Cucumber Powdery Mildew … percent control” value with Sphaerotheca fuliginea is 0 percent control.
